# From patent US10556900B2, “TrkA kinase inhibitors, compositions and methods thereof” (Merck Sharp & Dohme Corp., priority 2015, dated 2020)
# Biological target: human TrkA receptor (Homo sapiens (Human), UniProt P04629)
# Assay: TrkA functional activity, DiscoverX PathHunter assay (NGF-stimulated U2OS cells)
# Type: cell-based
# Settings: U2OS cells expressing human TrkA-Prolink, Shc1-EA and p75NTR; compound 1 h, then NGF (~80% of maximal response) 3 h; luminescence
# Description: TrkA functional activity was measured using a DiscoverX PathHunter assay. In this assay, U2OS cells express the human TrkA receptor as a fusion with the weakly complementing fragment of B-galactosidase, which DiscoverX calls “Prolink (PK)”; additionally, Shc1 is fused with a larger fragment, which is called “Enzyme Acceptor (EA)”. Activation of the TrkA receptor, upon NGF addition, results in the kinase domain being phosphorylated, resulting in subsequent recruitment of Shc1-EA protein. That recruitment results in an active B-galactosidase enzyme that is detected by addition of a chemiluminescent substrate. The human p75^NTR protein was also expressed as a co-receptor for NGF.
# All reagents were purchased from DiscoverX, except for the receptor agonists (NGF, BDNF, NT3) which were purchased from Peprotech. Cells were expanded and frozen into cryovials, and stored in the vapor phase of liquid nitrogen, and thawed immediately before use. Thawed cells were added to a 384-well plate at 7500 cells/well, and allowed to incubate overnight. Compound at various concentrations was added the following morning and allowed to incubate on cells for 1 h. Then, NGF was added at a concentration sufficient to elicit ˜80% of a maximal response and allowed to incubate for 3 h at ambient temperature. DiscoverX PathHunter detection reagent was then added and the plate was further incubated for 1 h in the dark. The plate was then read via luminescence on the Perkin Elmer Envision.
# Sequence of human TrkA receptor (P04629 33-796): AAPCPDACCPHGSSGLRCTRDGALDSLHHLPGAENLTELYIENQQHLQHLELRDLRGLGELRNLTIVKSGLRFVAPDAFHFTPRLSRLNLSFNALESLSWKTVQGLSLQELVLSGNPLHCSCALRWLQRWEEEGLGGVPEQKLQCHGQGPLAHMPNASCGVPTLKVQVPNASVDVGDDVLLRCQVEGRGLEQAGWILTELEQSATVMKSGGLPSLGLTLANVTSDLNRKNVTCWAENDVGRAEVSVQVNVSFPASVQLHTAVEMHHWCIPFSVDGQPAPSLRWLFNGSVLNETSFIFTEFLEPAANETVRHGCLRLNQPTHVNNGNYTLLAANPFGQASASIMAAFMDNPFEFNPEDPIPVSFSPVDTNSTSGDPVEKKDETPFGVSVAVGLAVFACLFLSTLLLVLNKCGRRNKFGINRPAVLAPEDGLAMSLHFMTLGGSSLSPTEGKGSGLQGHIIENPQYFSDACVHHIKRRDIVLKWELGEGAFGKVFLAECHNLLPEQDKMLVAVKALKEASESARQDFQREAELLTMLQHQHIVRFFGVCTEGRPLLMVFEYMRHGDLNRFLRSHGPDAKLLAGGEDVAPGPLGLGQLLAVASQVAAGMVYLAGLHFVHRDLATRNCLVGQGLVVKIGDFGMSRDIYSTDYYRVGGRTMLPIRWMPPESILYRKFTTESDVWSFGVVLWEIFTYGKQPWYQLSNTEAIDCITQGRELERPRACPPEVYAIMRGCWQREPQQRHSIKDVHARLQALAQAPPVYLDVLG
row,IC50 [nM],SMILES
1,11,"CC(O)c1nc2c(NC(=O)c3ccc(C(F)(F)F)c(-c4ccn(C)n4)c3)c(-c3ccccc3)ccc2s1 (racemic) [Compound 6, (R and S)—N-(2-(1-Hydroxyethyl)-5-phenylbenzo[d]thiazol-4-yl)-3-(1-methyl-1H-pyrazol-3-yl)-4-(trifluoromethyl)benzamide]"
2,2.9,"CC(O)c1n[nH]c2c(NC(=O)c3cc(-c4ncccn4)c(C(F)(F)F)cc3F)c(-c3ccccc3)ccc12 (racemic) [Compound 46, (R) and (S)-2-Fluoro-N-(3-(1-hydroxyethyl)-6-phenyl-1H-indazol-7-yl)-5-(pyrimidin-2-yl)-4-(trifluoromethyl)benzamide]"
3,4.5,"CC(O)c1n[nH]c2c(NC(=O)c3cc(-c4ncccn4)c(C(F)(F)F)cc3F)c(-c3ccccc3)ccc12 (racemic) [Compound 47, (R) and (S)-2-Fluoro-N-(3-(1-hydroxyethyl)-6-phenyl-1H-indazol-7-yl)-5-(pyrimidin-2-yl)-4-(trifluoromethyl)benzamide]"
4,6.6,"CC(O)c1cnc2c(NC(=O)c3cc(-c4ncccn4)c(C(F)(F)F)cc3F)c(-c3ccccc3)ncn12 (racemic) [Compound 71, (R and S)-2-Fluoro-N-(3-(1-hydroxyethyl)-7-phenylimidazo[1,2-c]pyrimidin-8-yl)-5-(pyrimidin-2-yl)-4-(trifluoromethyl)benzamide]"
5,13,"CC(O)c1nc2c(NC(=O)c3ccc(C(F)(F)F)c(-c4ccn(C)n4)c3)c(-c3ccccc3)ccc2s1 (single isomer, unassigned) [Compound 5, (R and S)—N-(2-(1-Hydroxyethyl)-5-phenylbenzo[d]thiazol-4-yl)-3-(1-methyl-1H-pyrazol-3-yl)-4-(trifluoromethyl)benzamide]"
6,3.3,"CC(O)c1cnc2c(NC(=O)c3cc(-c4ncccn4)c(C(F)(F)F)cc3F)c(-c3ccccc3)ccn12 (single isomer, unassigned) [Compound 9, (R) or (S)-2-Fluoro-N-(3-(1-hydroxyethyl)-7-phenylimidazo[1,2-a]pyridin-8-yl)-5-(pyrimidin-2-yl)-4-(trifluoromethyl)benzamide]"
7,1.1,"CC(O)c1cnc2c(NC(=O)c3cc(-c4ncccn4)c(C(F)(F)F)cc3F)c(-c3ccccc3)ccn12 (single isomer, unassigned) [Compound 10, (R) or (S)-2-Fluoro-N-(3-(1-hydroxyethyl)-7-phenylimidazo[1,2-a]pyridin-8-yl)-5-(pyrimidin-2-yl)-4-(trifluoromethyl)benzamide]"
8,5.1,"CC(O)c1cnc2c(NC(=O)c3ccc(C(F)(F)F)c(-c4ccn(C)n4)c3)c(-c3ccccc3)ccn12 (single isomer, unassigned) [Compound 14, (R) or (S)-N-[3-(1-hydroxyethyl)-7-phenylimidazo[1,2-a]pyridin-8-yl]-3-(1-methyl-1H-pyrazol-3-yl)-4-(trifluoromethyl)benzamide]"
9,2.2,"CC(O)c1cnc2c(NC(=O)c3ccc(C(F)(F)F)c(-c4ccn(C)n4)c3)c(-c3ccccc3)ccn12 (single isomer, unassigned) [Compound 15, (R) or (S)-N-[3-(1-hydroxyethyl)-7-phenylimidazo[1,2-a]pyridin-8-yl]-3-(1-methyl-1H-pyrazol-3-yl)-4-(trifluoromethyl)benzamide]"
10,0.81,"CC(O)c1cnc2c(NC(=O)c3cc(-c4ccn(C)n4)c(C(F)(F)F)cc3F)c(-c3ccccc3)ccn12 (single isomer, unassigned) [Compound 25, (R) or (S)-2-fluoro-N-[3-(1-hydroxyethyl)-7-phenylimidazo[1,2-a]pyridin-8-yl]-5-(1-methyl-1H-pyrazol-3-yl)-4-(trifluoromethyl)benzamide]"
11,0.31,"CC(O)c1cnc2c(NC(=O)c3cc(-c4ccn(C)n4)c(C(F)(F)F)cc3F)c(-c3ccccc3)ccn12 (single isomer, unassigned) [Compound 26, (R) or (S)-2-fluoro-N-[3-(1-hydroxyethyl)-7-phenylimidazo[1,2-a]pyridin-8-yl]-5-(1-methyl-1H-pyrazol-3-yl)-4-(trifluoromethyl)benzamide]"
12,3.5,"CC(O)c1cnc2c(NC(=O)c3cc(-c4cc[nH]n4)c(C(F)(F)F)cc3F)c(-c3ccccc3)ccn12 (single isomer, unassigned) [Compound 27, (R) or (S)-2-fluoro-N-[3-(1-hydroxyethyl)-7-phenylimidazo[1,2-a]pyridin-8-yl]-5-(1H-pyrazol-3-yl)-4-(trifluoromethyl)benzamide]"
13,1.8,"CC(O)c1cnc2c(NC(=O)c3cc(-c4cc[nH]n4)c(C(F)(F)F)cc3F)c(-c3ccccc3)ccn12 (single isomer, unassigned) [Compound 28, (R) or (S)-2-fluoro-N-[3-(1-hydroxyethyl)-7-phenylimidazo[1,2-a]pyridin-8-yl]-5-(1H-pyrazol-3-yl)-4-(trifluoromethyl)benzamide]"
14,1.7,"CC(O)c1cnc2c(NC(=O)c3cc(-c4ccccn4)c(C(F)(F)F)cc3F)c(-c3ccccc3)ccn12 (single isomer, unassigned) [Compound 29, (R) or (S)-2-fluoro-N-[3-(1-hydroxyethyl)-7-phenylimidazo[1,2-a]pyridin-8-yl]-5-pyridin-2-yl-4-(trifluoromethyl)benzamide]"
15,0.74,"CC(O)c1cnc2c(NC(=O)c3cc(-c4ccccn4)c(C(F)(F)F)cc3F)c(-c3ccccc3)ccn12 (single isomer, unassigned) [Compound 30, (R) or (S)-2-fluoro-N-[3-(1-hydroxyethyl)-7-phenylimidazo[1,2-a]pyridin-8-yl]-5-pyridin-2-yl-4-(trifluoromethyl)benzamide]"
16,0.9,"CC(O)c1n[nH]c2c(NC(=O)c3ccc(C(F)(F)F)c(-c4ccn(C)n4)c3)c(-c3ccccc3)ccc12 (single isomer, unassigned) [Compound 48, (R) or (S)-N-[3-(1-hydroxyethyl)-6-phenyl-1H-indazol-7-yl]-3-(1-methyl-1H-pyrazol-3-yl)-4-(trifluoromethyl)benzamide]"
17,2,"CC(O)c1n[nH]c2c(NC(=O)c3ccc(C(F)(F)F)c(-c4ccn(C)n4)c3)c(-c3ccccc3)ccc12 (single isomer, unassigned) [Compound 49, (R) or (S)-N-[3-(1-hydroxyethyl)-6-phenyl-1H-indazol-7-yl]-3-(1-methyl-1H-pyrazol-3-yl)-4-(trifluoromethyl)benzamide]"
18,4.9,"CC(O)c1cnc2c(NC(=O)c3cc(-c4ncccn4)c(C(F)(F)F)cc3F)c(-c3ccc(F)cc3)ccn12 (single isomer, unassigned) [Compound 52, (R) or (S)-2-fluoro-N-[7-(4-fluorophenyl)-3-(1-hydroxyethyl)imidazo[1,2-a]pyridin-8-yl]-5-pyrimidin-2-yl-4-(trifluoromethyl)benzamide]"
19,29,"CC(O)c1cnc2c(NC(=O)c3cc(-c4ncccn4)c(C(F)(F)F)cc3F)c(-c3ccc(F)cc3)ccn12 (single isomer, unassigned) [Compound 53, (R) or (S)-2-fluoro-N-[7-(4-fluorophenyl)-3-(1-hydroxyethyl)imidazo[1,2-a]pyridin-8-yl]-5-pyrimidin-2-yl-4-(trifluoromethyl)benzamide]"
20,5.1,"CC(O)c1cnc2c(NC(=O)c3cc(-c4ncccn4)c(C(F)(F)F)cc3F)c(-c3ccccc3)ncn12 (single isomer, unassigned) [Compound 72, (R and S)-2-Fluoro-N-(3-(1-hydroxyethyl)-7-phenylimidazo[1,2-c]pyrimidin-8-yl)-5-(pyrimidin-2-yl)-4-(trifluoromethyl)benzamide]"
21,4.2,"[2H]C(C)(O)c1cnc2c(NC(=O)c3cc(-c4ncccn4)c(C(F)(F)F)cc3F)c(-c3ccccc3)ccn12 (single isomer, unassigned) [Compound 74, (R and S)-2-Fluoro-N-(3-(1-hydroxyethyl-1-d)-7-phenylimidazo[1,2-a]pyridin-8-yl)-5-(pyrimidin-2-yl)-4-(trifluoromethyl)benzamide]"
22,2,"[2H]C(C)(O)c1cnc2c(NC(=O)c3cc(-c4ncccn4)c(C(F)(F)F)cc3F)c(-c3ccccc3)ccn12 (single isomer, unassigned) [Compound 75, (R and S)-2-Fluoro-N-(3-(1-hydroxyethyl-1-d)-7-phenylimidazo[1,2-a]pyridin-8-yl)-5-(pyrimidin-2-yl)-4-(trifluoromethyl)benzamide]"
23,17,"Cn1ccc(-c2cc(C(=O)Nc3c(-c4ccccc4)ccc4nc(C(C)(C)O)cn34)ccc2C(F)(F)F)n1 [Compound 1, N-(2-(2-Hydroxypropan-2-yl)-6-phenylimidazo[1,2-a]pyridin-5-yl)-3-(1-methyl-1H-pyrazol-3-yl)-4-(trifluoromethyl)benzamide]"
24,139,"Cn1ccc(-c2cc(C(=O)Nc3c(-c4ccccc4)ccn4cc(C(C)(C)O)nc34)ccc2C(F)(F)F)n1 [Compound 2, N-(2-(2-Hydroxypropan-2-yl)-7-phenylimidazo[1,2-a]pyridin-8-yl)-3-(1-methyl-1H-pyrazol-3-yl)-4-(trifluoromethyl)benzamide]"
25,323,"Cn1ccc(-c2cc(C(=O)Nc3c(-c4ccccc4)ccc4nc(C(C)(C)O)sc34)ccc2C(F)(F)F)n1 [Compound 3, N-(2-(2-Hydroxypropan-2-yl)-6-phenylbenzo[d]thiazol-7-yl)-3-(1-methyl-1H-pyrazol-3-yl)-4-(trifluoromethyl)benzamide]"
